Laboratory results from patent publication US20240180888A1, “C5AR1 INHIBITORS FOR TREATING […] REACTIONS TO TAXANES” (Dompe' Farmaceutici SPA, priority 2021, published 2024).
“Also recorded” adds a separate entry of the source.

Tests used:
[1] = system: human (THP-1) macrophages; assay: Proteome profiler cytokine release assay in human macrophages; assay type: cell-based; conditions: human macrophages; stimulus C5a 10 nM or paclitaxel 10 nM, 24 h
Method: (§1) After 24 hours, cells were treated with C5a (diluted in medium) (10 nM, R&D, USA), Paclitaxel (diluted in medium) (10 nM, Sigma, USA) in the absence and in the presence of the C5a inhibitor DF3966A (10 μM), and anti C5aR Ab (BioLegend, CA, USA; 50 nM) or Avacopan (10 μM) for 24 hours, then the media was replaced with culture media (5 ml) for 24 h and then collected.
(§2) Conditioned media were centrifugated to remove particulates and assayed immediately. […] The reagents were prepared following manufacturer's protocols (R&D, USA). Briefly, the membranes were incubated with Array Buffer 6 for 1 hour on a rocking platform shaker. The samples were prepared by adding up to 1 ml of Array Buffer 4 in two separated tubes and then 15 microl of reconstituted mouse cytokine detection antibody cocktail (>40 mouse cytokines) to each prepared sample and incubated 1 hour. Then, the Array Buffer 6 was aspirated and replaced with the sample/antibody mixtures and incubated at 4° C. overnight. The following day, membranes were washed 3 times and Streptavidin-HRP (1:2000) was incubated for 30 minutes at room temperature on a rocking platform shaker. The membranes were washed again, and 1 ml of prepared Chemi Reagent mix was placed onto each membrane. Multiple exposure times were acquired using UVITEC digital analyzer (Alliance, Cambridge, UK).
(§3) The positive signals seen in the developed membranes can be identified by placing the transparency overlay template on the array image and aligning it with pairs of reference spots in the three corners of each array (see FIG. 10). […] Pixel densities (average signals of pair of duplicates which represent each cytokine) were analyzed by ImageJ and the average background was subtracted from each spot.
(§4) In details, the profiling of cytokines released (>40 cytokines) from RAW 264.7 and human macrophages challenged with paclitaxel (Sigma-Aldrich; 10 nM) or C5a (R&D Systems, Inc. MN, USA; 10 nM) for 24 h using a proteome profiler assay. […] The experimental assay is explained in example 4.
(§5) For the human macrophages, human XL Cytokine Array kit #Ary022B was used, while for murine macrophages mouse cytokine Array Panel A #Ary006 was used (R&D systems, USA).

[2] = system: RAW 264.7 mouse macrophages; assay: Proteome profiler cytokine release assay in RAW 264.7 macrophages; assay type: cell-based; conditions: stimulus C5a 10 nM or Paclitaxel 10 nM, 24 h; DF3966A 10 μM, anti C5aR Ab 50 nM, Avacopan 10 μM
Method: RAW 264.7 (ATTC TIB-71) mouse macrophages were cultured following manufacturer's instructions using DMEM medium (Euroclone, MI, Italy) supplemented with 10% FBS (non-heat inactivated) (ATCC, USA) at 37° C., in a humidified 95% air-5% CO2 atmosphere and then were seeded at 1*10^4 cells/cm^2.
as §1, §2, §3, §4, §5

[3] = system: paclitaxel-induced HSRs in mice; assay: Prevention of paclitaxel-induced HSRs in vivo by C5aR1 inhibition (Example 8); conditions: 30 mg/kg, os; for increment of serum concentration of complement 5b-9 (SC5b-9) / increment of serum concentration of histamine: pre-treatment, paclitaxel-treated mice, ELISA; for paclitaxel-induced increase of plasma extravasation / paclitaxel-induced increase of vascular leakage: DF3966A 3 h, Avacopan 1 h before paclitaxel 20 mg/kg iv in Cremophor EL
Method: ) was intravenousely administrated at 20 mg/kg (0.1 mL/Kg) dissolved in Cremophor EL (polyoxyl 35 castor oil, Sigma-Aldrich, cod. 238470). […] Cremophor alone (Cremophor) was used as a control. […] Intracardiac injection was done to obtain blood in tubes and leaving it undisturbed at room temperature. Serum was separated from blood cells 30 minutes later by centrifugation (2000×g for 10 min, at 4° C.). Aliquots were prepared and stored at -20° C. ELISA kit was used to evaluate the following marker: histamine and SC5b-9 (Mybiosource, San Diego, USA Cat.No: MBS9361379, MBS725193).

| SMILES | effect on C5a- and paclitaxel-induced cytokine release [1] | effect on C5a- and paclitaxel-induced cytokine release [2] | increment of serum concentration of complement 5b-9 (SC5b-9) [3] | increment of serum concentration of histamine [3] | paclitaxel-induced increase of plasma extravasation [3] | paclitaxel-induced increase of vascular leakage [3] |
| --- | --- | --- | --- | --- | --- | --- |
| C[C@H](c1ccc(Nc2nc(C(F)(F)F)cs2)cc1)c1nn[nH]n1 [DF3966A, 5-[(1R)-1-(4-{[4-(trifluoromethyl)-1,3-thiazol-2-yl]amino}phenyl)ethyl]tetrazol-2-ide] | effectively counteracted | inhibited; also recorded: counteracted | significatively reduced | significatively reduced | abolishing | abolishing |
| Cc1ccc(NC(=O)[C@H]2CCCN(C(=O)c3c(C)cccc3F)[C@H]2c2ccc(NC3CCCC3)cc2)cc1C(F)(F)F [Avacopan, (2R,3S)-2-[4-(Cyclopentylamino)phenyl]-1-(2-fluoro-6-methylbenzoyl)-N-[4-methyl-3-(trifluoromethyl)phenyl]piperidine-3-carboxamide] | effectively counteracted | inhibited; also recorded: counteracted | significatively reduced | significatively reduced | abolishing | abolishing |
